Data as given in US10597388B2, “Pyridazinone herbicides” (FMC CORPORATION, priority 2014, dated 2020).

Assays:
Experiment in all cases: Test D controlled growth environment herbicide test, pre- and postemergence
Type in all cases: in vivo
[1] = test system: ryegrass, Italian (Italian ryegrass, Lolium multiflorum)
From the text: (§1) Seeds of plant species selected from bluegrass (annual bluegrass, Poa annua), blackgrass (Alopecurus myosuroides), Canada thistle (Cirsium arvense), canarygrass (Phalaris minor), chickweed (common chickweed, Stellaria media), geranium, cutleaf (cutleaf geranium, Geranium dissectum), galium (catchweed bedstraw, Galium aparine), bromegrass, downy (downy bromegrass, Bromus tectorum), field poppy (Papaver rhoeas), field violet (Viola arvensis), foxtail, green (green foxtail, Setaria viridis), deadnettle (henbit deadnettle, Lamium amplexicaule), ryegrass, Italian (Italian ryegrass, Lolium multiflorum), kochia (Kochia scoparia), lambsquarters (Chenopodium album), oilseed rape (Brassica napus), pigweed (Amaranthus retroflexus), chamomile (scentless chamomile, Matricaria inodora), Russian thistle (Salsola kali), speedwell (bird's-eye speedwell, Veronica persica), barley, spring (spring barley, Hordeum vulgare), wheat, spring (spring wheat, Triticum aestivum), buckwheat, wild (wild buckwheat, Polygonum convolvulus), mustard, wild (wild mustard, Sinapis arvensis), oat, wild (wild oat, Avena fatua), radish, wild (wild radish, Raphanus raphanistrum), windgrass (Apera spica-venti), barley, winter (winter barley, Hordeum vulgare), and wheat, winter (winter wheat, Triticum aestivum) were planted into a silt loam soil and treated preemergence with test chemicals formulated in a non-phytotoxic solvent mixture which included a surfactant.
(§2) At the same time, these species were planted in pots containing Redi-Earth® planting medium (Scotts Company, 14111 Scottslawn Road, Marysville, Ohio 43041) comprising spaghnum peat moss, vermiculite, wetting agent and starter nutrients and treated with postemergence applications of the test chemicals formulated in the same manner. Plants ranged in height from 2 to 18 cm (1- to 4-leaf stage). Treated plants and controls were maintained in a controlled growth environment for 14 to 21 d after which time all species were compared to controls and visually evaluated. Plant response ratings, summarized in Table D, are based on a scale of 0 to 100 where 0 is no effect and 100 is complete control. A dash (-) response means no test result.

[2] = test system: deadnettle (henbit deadnettle, Lamium amplexicaule)
From the text: as §1, §2

[3] = test system: oat, wild (wild oat, Avena fatua)
From the text: as §1, §2

[4] = test system: field poppy (Papaver rhoeas)
From the text: as §1, §2

[5] = test system: wheat, spring (spring wheat, Triticum aestivum)
From the text: as §1, §2

[6] = test system: windgrass (Apera spica-venti)
From the text: as §1, §2

[7] = test system: buckwheat, wild (wild buckwheat, Polygonum convolvulus)
From the text: as §1, §2

[8] = test system: radish, wild (wild radish, Raphanus raphanistrum)
From the text: as §1, §2

[9] = test system: speedwell (bird's-eye speedwell, Veronica persica)
From the text: as §1, §2

[10] = test system: oilseed rape (Brassica napus)
From the text: as §1, §2

[11] = test system: barley, spring (spring barley, Hordeum vulgare)
From the text: as §1, §2

[12] = test system: canarygrass (Phalaris minor)
From the text: as §1, §2

[13] = Postemergence, 31 g ai/ha, scale 0 to 100 (0 no effect, 100 complete control)
[14] = Postemergence, 125 g ai/ha, visual rating on scale 0 (no effect) to 100 (complete control), 14 to 21 d
[15] = Postemergence, 250 g ai/ha, scale 0 to 100 (0 no effect, 100 complete control)
[16] = Preemergence, 62 g ai/ha, scale 0 to 100 (0 no effect, 100 complete control)
[17] = Preemergence, 125 g ai/ha, scale 0 to 100 (0 no effect, 100 complete control)
[18] = Preemergence, 250 g ai/ha, scale 0 to 100, 0 no effect, 100 complete control
[19] = postemergence, 62 g ai/ha, scale 0 to 100, 0 no effect, 100 complete control

## Cc1cc(C)c2sc(C)c(-c3c(O)c(C)nn(C)c3=O)c2c1 [Compound 2, 5-hydroxy-2,6-dimethyl-4-(2,5,7-trimethylbenzo[b]thien-3-yl)-3(2H)-pyridazinone]
[1]; [13]
  Ryegrass, Italian plant response rating: 70
[1]; [14]
  Plant response rating, Ryegrass, Italian: 85
[1]; [15]
  Plant response rating, Ryegrass, Italian: 90
[1]; Preemergence, 31 g ai/ha
  Plant response rating (scale of 0 to 100), Ryegrass, Italian: 85
[1]; [16]
  Plant response rating, Ryegrass, Italian: 95
[1]; [17]
  Plant response rating, Ryegrass, Italian: 100
[1]; [18]
  Plant response rating, Ryegrass, Italian: 100
[1]; [19]
  Plant response rating, Ryegrass, Italian: 80
[2]; [13]
  Deadnettle plant response rating: 60
[2]; [14]
  Plant response rating, Deadnettle: 60
[2]; [15]
  Plant response rating, Deadnettle: 60
[2]; Preemergence, 31 g ai/ha
  Plant response rating (scale of 0 to 100), Deadnettle: 0
[2]; [16]
  Plant response rating, Deadnettle: 0
[2]; [17]
  Plant response rating, Deadnettle: 0
[2]; [18]
  Plant response rating, Deadnettle: 55
[2]; [19]
  Plant response rating, Deadnettle: 60
[3]; [13]
  Oat, Wild plant response rating: 55
[3]; [14]
  Plant response rating, Oat, Wild: 90
[3]; [15]
  Plant response rating, Oat, Wild: 100
[3]; Preemergence, 31 g ai/ha
  Plant response rating (scale of 0 to 100), Oat, Wild: 80
[3]; [16]
  Plant response rating, Oat, Wild: 90
[3]; [17]
  Plant response rating, Oat, Wild: 95
[3]; [18]
  Plant response rating, Oat, Wild: 100
[3]; [19]
  Plant response rating, Oat, Wild: 80
[4]; [13]
  Field Poppy plant response rating: 75
[4]; [14]
  Plant response rating, Field Poppy: 100
[4]; [15]
  Plant response rating, Field Poppy: 100
[4]; Preemergence, 31 g ai/ha
  Plant response rating (scale of 0 to 100), Field Poppy: 95
[4]; [16]
  Plant response rating, Field Poppy: 95
[4]; [17]
  Plant response rating, Field Poppy: 95
[4]; [18]
  Plant response rating, Field Poppy: 100
[4]; [19]
  Plant response rating, Field Poppy: 95
[5]; [13]
  Wheat, Spring plant response rating: 0
[5]; [14]
  Plant response rating, Wheat, Spring: 10
[5]; [15]
  Plant response rating, Wheat, Spring: 25
[5]; Preemergence, 31 g ai/ha
  Plant response rating (scale of 0 to 100), Wheat, Spring: 0
[5]; [16]
  Plant response rating, Wheat, Spring: 0
[5]; [17]
  Plant response rating, Wheat, Spring: 5
[5]; [18]
  Plant response rating, Wheat, Spring: 10
[5]; [19]
  Plant response rating, Wheat, Spring: 0
[6]; [13]
  Windgrass plant response rating: 10
[6]; [14]
  Plant response rating, Windgrass: 55
[6]; [15]
  Plant response rating, Windgrass: 70
[6]; Preemergence, 31 g ai/ha
  Plant response rating (scale of 0 to 100), Windgrass: 60
[6]; [16]
  Plant response rating, Windgrass: 75
[6]; [17]
  Plant response rating, Windgrass: 95
[6]; [18]
  Plant response rating, Windgrass: 100
[6]; [19]
  Plant response rating, Windgrass: 25
[7]; [13]
  Buckwheat, Wild plant response rating: 85
[7]; [14]
  Plant response rating, Buckwheat, Wild: 100
[7]; [15]
  Plant response rating, Buckwheat, Wild: 100
[7]; [16]
  Plant response rating, Buckwheat, Wild: 10
[7]; [17]
  Plant response rating, Buckwheat, Wild: 100
[7]; [18]
  Plant response rating, Buckwheat, Wild: 100
[7]; [19]
  Plant response rating, Buckwheat, Wild: 95
[8]; [13]
  Radish, Wild plant response rating: 25
[8]; [14]
  Plant response rating, Radish, Wild: 65
[8]; [15]
  Plant response rating, Radish, Wild: 60
[8]; Preemergence, 31 g ai/ha
  Plant response rating (scale of 0 to 100), Radish, Wild: 0
[8]; [16]
  Plant response rating, Radish, Wild: 5
[8]; [17]
  Plant response rating, Radish, Wild: 15
[8]; [18]
  Plant response rating, Radish, Wild: 100
[8]; [19]
  Plant response rating, Radish, Wild: 55
[9]; [13]
  Speedwell plant response rating: 50
[9]; [14]
  Plant response rating, Speedwell: 80
[9]; [15]
  Plant response rating, Speedwell: 90
[9]; Preemergence, 31 g ai/ha
  Plant response rating (scale of 0 to 100), Speedwell: 55
[9]; [17]
  Plant response rating, Speedwell: 90
[9]; [18]
  Plant response rating, Speedwell: 100
[9]; [19]
  Plant response rating, Speedwell: 65
[10]; [13]
  Oilseed Rape plant response rating: 20
[10]; [14]
  Plant response rating, Oilseed Rape: 55
[10]; [15]
  Plant response rating, Oilseed Rape: 70
[10]; Preemergence, 31 g ai/ha
  Plant response rating (scale of 0 to 100), Oilseed Rape: 0
[10]; [16]
  Plant response rating, Oilseed Rape: 0
[10]; [17]
  Plant response rating, Oilseed Rape: 20
[10]; [18]
  Plant response rating, Oilseed Rape: 40
[10]; [19]
  Plant response rating, Oilseed Rape: 45
[11]; [13]
  Plant response rating, Barley, Spring: 0
[11]; [14]
  Plant response rating, Barley, Spring: 5
[11]; [15]
  Plant response rating, Barley, Spring: 5
[11]; Preemergence, 31 g ai/ha
  Plant response rating (scale of 0 to 100), Barley, Spring: 0
[11]; [16]
  Plant response rating, Barley, Spring: 0
[11]; [17]
  Plant response rating, Barley, Spring: 0
[11]; [18]
  Barley, Spring plant response rating: 0
[11]; [19]
  Plant response rating, Barley, Spring: 0
[12]; [13]
  Canarygrass plant response rating: 25
[12]; [14]
  Plant response rating, Canarygrass: 55
[12]; [15]
  Plant response rating, Canarygrass: 75
[12]; Preemergence, 31 g ai/ha
  Plant response rating (scale of 0 to 100), Canarygrass: 40
[12]; [16]
  Plant response rating, Canarygrass: 60
[12]; [17]
  Plant response rating, Canarygrass: 85
[12]; [18]
  Plant response rating, Canarygrass: 90
[12]; [19]
  Plant response rating, Canarygrass: 40
